Experiment [1] has as its system survival of cerebral tissue during acute hypoxia. Briefly: Acute hypobaric hypoxia in mice, survival time of the brain (final respiratory gasp). It is filed as in vivo, mice (male CD1). On the procedure: (§1) The compounds of the present invention were tested in respect of their capacity to prolong the survival of cerebral tissue during acute hypoxia in mice, or to maintain the level of tissue energy-rich compounds in rats subjected to a fall in the oxygen supply [Pharmacology of Cerebral Ischemia, ([…]) p. 334-339 Elsevier Science Publishers B.V., J. Krieglstein ed.]. […] Forsch. Drug Res. (1986), 36 II No. 9, p. 1314-1320].
The survival of the brain is assessed by measuring the time at which the final respiratory gasp is observed.
The survival time of a treated batch is compared with that of a control batch receiving only the solvent.

In experiment [2] the test system is tissue energy-rich compounds (ATP, ADP, AMP) of the brain. Briefly: Acute normobaric hypoxia in rats, brain tissue energy-rich compounds (ATP level and energy content). It is filed as in vivo, rats (male Fischer 344). Particulars: for % inhibition of the effects of hypoxia: ATP / % inhibition of the effects of hypoxia: EC (energy content): 3% oxygen for 2 minutes. On the procedure: as §1
Whereas the control rats breathe a gaseous mixture containing 21% of oxygen and 79% of nitrogen, the rats subjected to hypoxia breath a mixture of 3% oxygen and 97% nitrogen for 2 minutes.
At the end of the hypoxic period, the animals are rapidly sacrificed by total immersion in liquid nitrogen. The frozen brain is removed and the energy-rich compounds (ATP, ADP, AMP) are extracted and assayed by the luciferin luminescence method.
The tissue energy content (EC) is calculated according to ATKINSON's formula: [formula]

[3] abbreviates: Mus musculus, ip, 100 mg/kg I.P., 30 minutes before hypoxia (160 mbar), mice, vs control batch, read-out: Percentage increase in the survival time.
Where [4] appears, read: Mus musculus, ip, 30 mg/kg I.P., 30 minutes before hypoxia (160 mbar), mice, vs control batch, read-out: Percentage increase in the survival time.
The mark [5] stands for this setting: Mus musculus, ip, read-out: Percentage increase in the survival time.
The mark [6] stands for this setting: 100 mg/kg I.P., listed as pyritinol.

Counter-ions that a name gives are not always drawn. Like-named read-outs stand apart in the source and are kept apart here.

Regarding `NC(=O)Cc1cccc2c1OC(=O)C2c1ccccc1` (centres unmarked) [Example 8, 2-(2,3-Dihydro-2-oxo-3-phenyl-7-benzofuranyl)acetamide], the ILS at 100 mg/kg in experiment [1] (setting [3]) turned out to be 13%.

For the molecule `NC(=O)Cc1ccc2c(c1)C(c1ccccc1)C(=O)O2` (centres unmarked) [Example 1, 2-(2,3-Dihydro-2-oxo-3-phenyl-5-benzofuranyl)acetamide], in experiment [2] (30 mg/kg I.P.), the “% inhibition of the effects of hypoxia: ATP” value (“% inhibition … ATP” below) was found to be 64.6% and the “% inhibition of the effects of hypoxia: EC (energy content)” value (“% inhibition … (energy content)” below) came out at 66%. In addition, the “effect on the ATP level and the energy content (in words)” value in experiment [2] (30 mg/kg, compared with meclofenoxate 300 mg/kg) was “Such an effect is observed with a dose of 30 mg/kg”. In addition, in experiment [1] (Mus musculus, ip, 3 mg/kg I.P., 30 minutes before hypoxia (160 mbar), mice, vs control batch, read-out: Percentage increase in the survival time), the ILS at 3 mg/kg is 24%. The ILS at 30 mg/kg in experiment [1] (setting [4]) amounted to 46%. In experiment [1] (setting [3]), the ILS at 100 mg/kg was determined as 170%.

As to `NC(=O)CN1CCCC1=O` [Piracetam, piracetam, reference compound], in experiment [1] (setting [3]), the ILS at 100 mg/kg was determined as 11%.

For `CN1CCN(C(=O)Cc2ccc3c(c2)C(c2ccccc2)C(=O)O3)CC1` (centres unmarked) [Example 5, 2-(2,3-Dihydro-2-oxo-3-phenyl-5-benzofuranyl)-1-(4-methylpiperazinyl)-1-oxoethane tartrate], the ILS at 100 mg/kg in experiment [1] (setting [5]) was found to be 111%.

In the case of `O=C1Oc2ccc(CC(=O)N3CCN(Cc4ccc5c(c4)OCO5)CC3)cc2C1c1ccccc1` (centres unmarked) [Example 4], in experiment [1] (setting [5]), the ILS at 3 mg/kg came to 43%, the ILS at 10 mg/kg came out at 49%, the ILS at 30 mg/kg is 54% and the ILS at 100 mg/kg was 133%.

For the molecule `NC(=O)Cc1cc(Cl)cc2c1OC(=O)C2c1ccccc1` (centres unmarked) [Example 9, 2-(5-Chloro-2,3-dihydro-2-oxo-3-phenyl-7-benzofuranyl)acetamide], in experiment [1] (setting [3]), the ILS at 100 mg/kg is 23%.

For `O=C1Oc2ccc(CC(=O)N3CCN(c4ccc(C(F)(F)F)cn4)CC3)cc2C1c1ccccc1` (centres unmarked) [Example 3, 2-(2,3-Dihydro-2-oxo-3-phenyl-5-benzofuranyl)-1-[4-(5-trifluoromethyl-2-pyridyl)piperazinyl]-1-oxoethane], in experiment [1] (setting [4]), the ILS at 30 mg/kg turned out to be 36%. In experiment [1] (setting [3]), the ILS at 100 mg/kg was 57%.

For the molecule `Cc1ncc(CSSCc2cnc(C)c(O)c2CO)c(CO)c1O` [Pyritinol, pyritinol], the “% inhibition … ATP” value in experiment [2] (30 mg/kg I.P.) worked out at 11.1%; in experiment [2] (100 mg/kg I.P.) it was 23.3%; in experiment [2] (setting [6]) it was 23%. Moreover, the “% inhibition … (energy content)” value in experiment [2] (30 mg/kg I.P.) worked out at 16.6%; in experiment [2] (100 mg/kg I.P.), 35.2%; in experiment [2] (setting [6]), 35%. Further, the “significance of the protection (brain survival time)” value in experiment [1] (100 mg/kg, mice, p<0.05) is given as “significant”. Besides, the ILS at 30 mg/kg in experiment [1] (setting [4]) came to 13%. Further, the ILS at 100 mg/kg in experiment [1] (setting [3]) turned out to be 27%.

On to `CN(C)CCOC(=O)COc1ccc(Cl)cc1` [Meclofenoxate, meclofenoxate, reference compound], for which, in experiment [2] (300 mg/kg I.P.), the “% inhibition … ATP” value turned out to be 59.7% and the “% inhibition … (energy content)” value is 69.6%. Moreover, in experiment [1] (setting [5]), the ILS at 30 mg/kg came out at 4% and the ILS at 100 mg/kg was determined as 22%.
